# Results reported in paper PMC10552892, “Ebselen oxide and derivatives are new allosteric HER2 inhibitors for HER2‐positive cancers” (Molecular Oncology, 2023).
# “Also recorded” adds a separate entry of the source.
# Legend:
# [1] = tested on: main protease of SARS‐CoV‐2; design: method as in PMID 33120196; settings: cited from earlier work
# [2] = design: method as in PMID 11546910; settings: after intravenous injection; cited from earlier work
# HER2 (pY1248) in SKBR3 = target: T1, HER2 (pY1248) in SKBR3 (Homo sapiens, UniProt P04626); experiment: HER2 activation (pY1248-HER2) in SKBR3 cells, western/dot blot; assay type: cell-based; design: Inhibition of HER2 activation / HER2 inhibition, %: concentration or dose not given beside the values
# T1 construct: host or cells: SKBR3
# T1 sequence (P04626 23-1255): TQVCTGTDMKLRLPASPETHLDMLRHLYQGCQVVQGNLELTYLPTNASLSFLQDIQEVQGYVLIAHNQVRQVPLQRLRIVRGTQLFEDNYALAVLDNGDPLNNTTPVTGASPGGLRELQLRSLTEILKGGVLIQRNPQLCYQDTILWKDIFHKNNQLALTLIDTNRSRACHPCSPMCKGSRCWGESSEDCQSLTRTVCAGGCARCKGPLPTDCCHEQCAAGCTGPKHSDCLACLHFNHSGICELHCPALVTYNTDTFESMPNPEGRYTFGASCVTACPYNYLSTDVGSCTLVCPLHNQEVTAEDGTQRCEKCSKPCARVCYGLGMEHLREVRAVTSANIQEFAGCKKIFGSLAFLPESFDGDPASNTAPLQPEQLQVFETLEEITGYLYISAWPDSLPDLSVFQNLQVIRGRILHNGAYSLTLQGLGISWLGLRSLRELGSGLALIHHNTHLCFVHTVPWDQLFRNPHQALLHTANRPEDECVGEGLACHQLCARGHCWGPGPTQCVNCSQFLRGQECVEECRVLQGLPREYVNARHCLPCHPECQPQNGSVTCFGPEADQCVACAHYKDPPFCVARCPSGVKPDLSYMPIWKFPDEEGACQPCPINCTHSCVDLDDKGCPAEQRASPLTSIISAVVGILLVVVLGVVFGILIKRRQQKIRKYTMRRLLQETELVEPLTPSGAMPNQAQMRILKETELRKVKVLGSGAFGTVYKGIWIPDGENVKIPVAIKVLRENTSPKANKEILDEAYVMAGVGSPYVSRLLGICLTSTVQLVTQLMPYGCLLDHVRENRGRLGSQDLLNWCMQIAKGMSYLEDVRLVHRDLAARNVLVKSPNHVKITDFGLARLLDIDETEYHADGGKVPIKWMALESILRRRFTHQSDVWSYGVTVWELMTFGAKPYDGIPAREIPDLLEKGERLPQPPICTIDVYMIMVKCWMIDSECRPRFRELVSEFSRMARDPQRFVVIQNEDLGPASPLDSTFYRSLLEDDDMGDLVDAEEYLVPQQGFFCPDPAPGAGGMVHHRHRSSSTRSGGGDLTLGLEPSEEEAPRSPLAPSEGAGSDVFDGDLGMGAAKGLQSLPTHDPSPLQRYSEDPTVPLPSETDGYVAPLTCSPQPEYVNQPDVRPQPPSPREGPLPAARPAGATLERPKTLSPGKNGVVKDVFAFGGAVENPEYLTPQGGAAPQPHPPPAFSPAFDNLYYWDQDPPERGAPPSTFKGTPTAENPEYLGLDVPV
# [3] = target: T2, JMHER2 (peptide derived from the cytosolic juxtamembrane sequence of HER2) (Homo sapiens, UniProt P04626); experiment: Surface plasmon resonance binding to immobilized HER2 juxtamembrane peptide; settings: analyte 5 or 10 μM, 60 s injection
# T2 construct: purchased Proteogenix
# Description: Interaction was performed on a BIAcore T200 instrument BIAcore (Cytiva Life Sciences, Marlborough, MA, USA); GE Healthcare (Little Chalfont, UK). […] Ebselen or ebselen oxide was used as an analyte and injected at 5 or 10 μM at a flow rate of 25 μL·min^−1 for 60 s.
# [4] = design: method as in PMID 23299882; settings: cited from earlier work
# [5] = design: method as in PMID 34299505; settings: whatever the administered doses; cited from earlier work
# [6] = target: T3, JMHER2/FERME interaction (biot-JMHER2 peptide and GST-FERME, N-terminal FERM domain of ezrin) (Homo sapiens, UniProt P04626); experiment: AlphaScreen competition of HER2 juxtamembrane peptide / ezrin FERM domain interaction; assay type: binding; settings: AlphaScreen, 20 h
# T3 construct: purchased Proteogenix
# Description: Biotinylated peptide derived from HER2 cytosolic juxtamembrane region (JMHER2, […] ) has been synthesized by Proteogenix (Schiltigheim, France). The binding reaction was described previously. Briefly, white 384‐well Optiplates (PerkinElmer, Whalham, MA, USA) were used to prepare GST‐FERME and biotinylated peptide in a binding buffer (PBS, pH 7.4, 5 mM MgCl2, and 0.02% CHAPS). GST‐FERME was incubated with biotinylated‐HER2 for 30 min at room temperature. AlphaScreen® Streptavidin Donor beads (20 μg·mL^−1) and Glutathione AlphaLISA® Acceptor Beads (20 μg·mL^−1) were added to the wells for overnight incubation in the dark and at room temperature. Light signal was detected with the EnVision® multilabel plate reader (PerkinElmer).
# Ebselen came out as an interesting hit. Ebselen is a synthetic organoselenium compound with the anti‐inflammatory and antioxidant property that has been evaluated in clinical trials for ischemic stroke and acute hearing loss. However, in vivo, ebselen rapidly reacts with peroxynitrite to form ebselen oxide. […] In addition, using surface plasmon resonance (SPR), we confirmed that both compounds could directly bind to JMHER2 (Fig. 1E,F). […] The slight decrease in HER2 expression was not significant. To examine whether HER2 inhibition by ebselen oxide was dependent on JMHER2/FERME interaction, we transfected HBMEC cells with a previously described glycoprotein D‐tagged HER2 form mutated on the critical amino acids involved in ERM binding (gD‐HER2‐EBM*).
structure (smiles),measurement,setting,value
O=c1c2ccccc2[se]n1-c1ccccc1 [Ebselen],Inhibition of the main protease of SARS-CoV-2,[1],highly active
same,Half-life,[2],1 to 3 h
same,Time to maximum serum concentration,[2],1 h
same,Inhibition of HER2 activation/activity,HER2 (pY1248) in SKBR3; HER2+ breast cancer cells (SKBR3 in Fig. S1),poorly inhibited; also recorded: did not inhibit
same,"HER2 inhibition, %","HER2 (pY1248) in SKBR3; Table 1, HER2+ breast cancer cells (ebselen oxide value equals SKBR3 48 h)",14.4%
same,EC50,"HER2 (pY1248) in SKBR3; Table 1, HER2+ breast cancer cells (ebselen oxide value equals SKBR3 48 h), read-out: EC50, μM (HER2 inhibition)",51.3 µM
same,Direct binding to JMHER2 (SPR),[3],directly bind
same,Blood–brain barrier permeation,[4],blood–brain barrier permeant
same,Tolerability in vivo,[5],always well tolerated
same,IC50,[6],44 nM
same,EC50,"[6]; read-out: EC50, μM (inhibition of HER2-FERME interaction)",0.044 µM
